Measured values published in patent US5736629A, “Herbicide resistant rice” (priority 1997, dated 1998).

Tests used:
Type in all cases: in vivo
[1] = test system: progeny of the mutant rice plant (ATCC 97523); test: Subsequent greenhouse and field testing of progeny of the surviving plant; conditions: herbicides applied either pre-emergence or post-emergence
Source text: (Imazamox is sold by American Cyanamid under the trade name Raptor, and has as active ingredient (+)-5-methoxymethyl-2-(4-isopropyl-4-methyl-5-oxo-2-imidazolin-2-yl) nicotinic acid. Imazameth is sold by American Cyanamid under the trade name Cadre, and has as active ingredient (±)-2-[4,5-dihydro-4-methyl-4-(1-methyl-ethyl)-5-oxo-1H-imidazol-2-yl]- 5-methyl-3-pyridinecarboxylicacid;alternatechemicalname (±)-2-(4-isopropyl-4-methyl-5-oxo-2-imidazolin-2-yl)-5-methylnicotinic acid). Imazapyr is sold by American Cyanamid under the trade name Arsenal, and has active ingredient 2-[4,5-dihydro-4-methyl-4-(1-methylethyl)-5-oxo-1H-imidazol-2-yl]-3-pyridinecarboxylic acid) This line is resistant to herbicides applied either pre-emergence or post-emergence.

ATCC 75295 rice line = test: Field plot test with AHAS-inhibiting herbicides, ATCC 75295
Experimental: The resistance of these plants to several other AHAS-inhibiting herbicides was also tested. Nine-foot-long field plots were planted with seven rows of rice per plot. The test included nine check rice varieties, and the ATCC 75295 rice line. A shielded spray boom was used to apply herbicide, spraying six of the seven rows in each plot. The four herbicides used were Pursuit (imazethapyr: (±)-2-[4,5-dihydro-4-methyl-4-(1-methylethyl)-5-oxo-1H-imidazol-2-yl]-5-ethyl-3-pyridinecarboxylic acid); Scepter (imazaquin: 2-[4,5-dihydro-4-methyl-4-(1-methylethyl)-5-oxo-1H-imidazol-2-yl]-3-quinolinecarboxylic acid); Accent (nicosulfuron: 2-(((((4,6-dimethoxypyrimidin-2-yl)aminocarbonyl)) aminosulfonyl))-N,N-dimethyl-3-pyridinecarboxamide); and Beacon (primisulfuron: 3-[4,6-bis(difluoromethoxy)-pyrimidin-2-yl]-1-(2-methoxycarbonylphenylsulfonyl)urea). The herbicides were applied to two replicate plots for each herbicide when the rice was at the three-leaf stage of maturity. Two replicate plots of each check variety and of the resistant line were left unsprayed as controls. The Accent treatment used 0.67 ounce of product (0.50 ounce active ingredient) per acre, with 0.25% nonionic surfactant. The Pursuit treatment used four ounces of product (1.00 ounce active ingredient) per acre, with 0.25% nonionic surfactant. The Scepter treatment used one pint of product (3.00 ounces active ingredient) per acre, with 0.25% nonionic surfactant. The Beacon treatment used 0.76 ounce of product (0.57 ounce active ingredient) per acre, with 0.25% nonionic surfactant. […] A similar test with the same rice varieties and the ATCC 75295 line was conducted at the five-leaf stage of development (i.e., plants fifteen days older than in the test described above), using Accent and Pursuit at the rates given above. […] The ATCC 75295 line was resistant only when herbicide was applied post-emergence.

[2] = test system: mutagenised rice seedlings of ten rice varieties; test: Field screen of mutagenised rice seedlings, all other plants; conditions: 2X treatment: nicosulfuron 0.063 lb a.i. per acre, imazethapyr 0.125 lb a.i. per acre; 0.25% non-ionic surfactant; 3-4 leaf stage; about four weeks later
Source text: The second resistance mechanism resulted from inducing mutations in seeds of each of ten rice varieties. Mutations were induced by exposure either to gamma rays or to the chemical mutagen ethyl methanesulfonate (EMS). Ten-pound lots of seed of each variety were subjected to 25 k-rad of gamma irradiation from a Cobalt-60 source at the Nuclear Science Center, Louisiana State University, Baton Rouge, La. prior to planting. An additional ten pounds of seed of each variety was divided into three equal portions; and each portion was soaked for 16 hours in either 0.1%, 0.5%, or 1% EMS immediately prior to planting. Several hundred pounds of seed were harvested from plants grown from the seeds subjected to these mutagenic treatments.
The following spring the harvested seed was planted in strips in a field planting occupying a total of about three acres. At the 3-4 leaf stage of seedling development, herbicides were applied to screen for herbicide-resistant mutants. Half of the seedlings of each variety were sprayed with a 2X treatment of nicosulfuron, and half were sprayed with a 2X treatment of imazethapyr, in both cases by a tractor-mounted sprayer. Nicosulfuron was applied at the rate of 0.063 lb active ingredient (a.i.) per acre, and imazethapyr was applied at 0.125 lb a.i. per acre. Non-ionic surfactant (0.25%) was added to each spray solution. […]

[3] = five-leaf stage (plants fifteen days older), same rates as in the three-leaf test
[4] = three-leaf stage, per acre a.i.: Accent 0.50 ounce, Pursuit 1.00 ounce, Scepter 3.00 ounces, Beacon 0.57 ounce, 0.25% nonionic surfactant
[5] = subsequent tests (data not shown)

| SMILES | Resistance of the rice line (in words) [1] | Resistance of the rice line (in words) (ATCC 75295 rice line; [3]) | Resistance of the rice line (in words) (ATCC 75295 rice line; [4]) | Resistance of the rice line (in words) (ATCC 75295 rice line; [5]) | Symptoms of injury (in words) [2] |
| --- | --- | --- | --- | --- | --- |
| CC(C)C1(C)N=C(c2nc3ccccc3cc2C(=O)O)NC1=O (stereo not shown) [imazaquin, 2-[4,5-dihydro-4-methyl-4-(1-methylethyl)-5-oxo-1H-imidazol-2-yl]-3-quinolinecarboxylic acid] | resistance | good resistance | good resistance |  |  |
| CC(C)C1(C)N=C(c2ncccc2C(=O)O)NC1=O (stereo not shown) [imazapyr, 2-[4,5-dihydro-4-methyl-4-(1-methylethyl)-5-oxo-1H-imidazol-2-yl]-3-pyridinecarboxylic acid] | resistance |  |  | exhibited resistance |  |
| COC(=O)c1ccccc1S(=O)(=O)NC(=O)Nc1nc(OC(F)F)cc(OC(F)F)n1 [primisulfuron, 3-[4,6-bis(difluoromethoxy)-pyrimidin-2-yl]-1-(2-methoxycarbonylphenylsulfonyl)urea] |  |  | lower, but still significantly greater than that of the check rice varieties |  |  |
| COc1cc(OC)nc(NC(=O)NS(=O)(=O)c2ncccc2C(=O)N(C)C)n1 [nicosulfuron, 2-(((((4,6-dimethoxypyrimidin-2-yl)aminocarbonyl))aminosulfonyl))-N,N-dimethyl-3-pyridinecarboxamide] | resistance | excellent resistance | excellent resistance |  | either severely injured or dead |
| COCc1cnc(C2=NC(C)(C(C)C)C(=O)N2)c(C(=O)O)c1 (single isomer, unassigned; (+)) [imazamox, (+)-5-methoxymethyl-2-(4-isopropyl-4-methyl-5-oxo-2-imidazolin-2-yl) nicotinic acid] | resistance |  |  |  |  |
| Cc1cnc(C2=NC(C)(C(C)C)C(=O)N2)c(C(=O)O)c1 (racemic) [imazameth, (±)-2-[4,5-dihydro-4-methyl-4-(1-methyl-ethyl)-5-oxo-1H-imidazol-2-yl]-5-methyl-3-pyridinecarboxylicacid] | resistance |  |  | exhibited resistance |  |
